According to patent US8658604B2, “Template-fixed beta-hairpin peptidomimetics with protease inhibitory activity” (Polyphor Ltd, priority 2005, dated 2014):
One block for each compound: values may come before it. Where a SMILES comes first, the peptide text is derived from it.

What was measured:
[1] = target: Trypsin, from human pancreas (Homo sapiens, UniProt P07477); test: Enzymatic assay, trypsin; settings: at 100 μM
Chymase, from human skin = target: T1, Chymase, from human skin (Homo sapiens, UniProt P23946); test: Enzymatic assay, chymase
T1 sequence (P23946 22-247): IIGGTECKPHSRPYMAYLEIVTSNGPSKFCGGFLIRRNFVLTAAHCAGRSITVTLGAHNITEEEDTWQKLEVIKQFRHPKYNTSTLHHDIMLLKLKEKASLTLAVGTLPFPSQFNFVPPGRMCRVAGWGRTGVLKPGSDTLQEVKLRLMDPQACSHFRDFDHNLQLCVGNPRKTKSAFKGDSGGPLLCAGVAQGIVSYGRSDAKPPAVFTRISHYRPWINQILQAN

[2] = target: T2, Elastase from human neutrophils (Homo sapiens, UniProt P08246); test: Enzymatic assay, elastase; settings: Elastase IC50
T2 sequence (P08246 30-267): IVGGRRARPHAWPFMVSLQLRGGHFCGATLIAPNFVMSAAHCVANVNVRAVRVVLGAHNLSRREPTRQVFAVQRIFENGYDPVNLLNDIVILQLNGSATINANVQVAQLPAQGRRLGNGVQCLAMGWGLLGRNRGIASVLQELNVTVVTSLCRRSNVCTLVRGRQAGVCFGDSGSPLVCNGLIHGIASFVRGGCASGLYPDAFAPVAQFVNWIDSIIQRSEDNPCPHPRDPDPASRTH

[3] = target: Thrombin, from Human Plasma (Homo sapiens, UniProt P00734); test: Enzymatic assay, thrombin
[4] = system: Tryptase, from human lung; test: Enzymatic assay, tryptase; settings: at 100 μM
[5] = target: Urokinase from human urine (Homo sapiens, UniProt P00749); test: Enzymatic assay, urokinase
[6] = target: T3, CathepsinG, from human neutrophils (Homo sapiens, UniProt P08311); test: Enzymatic assay, cathepsin G; settings: for IC50: Cathepsin G IC50
T3 sequence (P08311 21-244): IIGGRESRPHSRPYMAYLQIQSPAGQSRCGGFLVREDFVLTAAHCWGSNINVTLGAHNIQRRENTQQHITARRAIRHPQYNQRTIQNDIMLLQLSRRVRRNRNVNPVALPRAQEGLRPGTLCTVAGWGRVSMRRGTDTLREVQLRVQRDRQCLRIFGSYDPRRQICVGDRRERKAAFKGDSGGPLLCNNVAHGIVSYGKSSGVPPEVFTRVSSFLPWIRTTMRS

[7] = target: Chymotrypsin, from human pancreas (Homo sapiens, UniProt P17538); test: Enzymatic assay, chymotrypsin; settings: at 100 μM
Sequence of Chymotrypsin, from human pancreas (P17538 19-263): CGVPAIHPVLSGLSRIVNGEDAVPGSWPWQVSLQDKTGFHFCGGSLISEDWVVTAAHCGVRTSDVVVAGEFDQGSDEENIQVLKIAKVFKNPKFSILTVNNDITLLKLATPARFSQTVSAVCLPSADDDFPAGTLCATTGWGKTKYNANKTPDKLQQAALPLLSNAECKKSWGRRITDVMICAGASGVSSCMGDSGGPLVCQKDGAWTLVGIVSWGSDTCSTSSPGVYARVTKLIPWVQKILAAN

[8] = target: Coagulation Factor Xa, from uman plasma (Homo sapiens, UniProt P00742); test: Enzymatic assay, coagulation factor Xa
Sequence of Coagulation Factor Xa, from uman plasma (P00742 235-488 limits assumed): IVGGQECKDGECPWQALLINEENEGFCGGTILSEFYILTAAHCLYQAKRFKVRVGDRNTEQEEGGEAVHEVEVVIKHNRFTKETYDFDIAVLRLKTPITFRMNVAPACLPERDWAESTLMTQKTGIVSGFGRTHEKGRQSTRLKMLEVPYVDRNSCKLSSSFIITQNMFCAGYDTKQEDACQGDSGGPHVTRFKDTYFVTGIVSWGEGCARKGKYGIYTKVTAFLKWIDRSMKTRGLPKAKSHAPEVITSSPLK
Sequence of Coagulation Factor Xa, from uman plasma (P00742 41-179 limits assumed): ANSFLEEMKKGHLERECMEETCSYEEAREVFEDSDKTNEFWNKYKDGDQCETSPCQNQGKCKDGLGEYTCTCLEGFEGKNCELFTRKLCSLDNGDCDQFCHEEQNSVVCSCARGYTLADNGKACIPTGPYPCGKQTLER

Compound: CCCC[C@@H]1NC(=O)[C@@H]2CCCN2C(=O)[C@H]2CCCN2C(=O)[C@H](Cc2ccc(O)cc2)NC(=O)[C@@H]2CSSC[C@H](NC1=O)C(=O)N[C@@H]([C@@H](C)O)C(=O)N[C@@H](C)C(=O)N[C@@H](CO)C(=O)N[C@@H]([C@@H](C)CC)C(=O)N1CCC[C@H]1C(=O)N1CC(NC(=O)c3ccccc3)C[C@H]1C(=O)N[C@@H](CCC(N)=O)C(=O)N2 (single isomer, unassigned) [Ex. 138]
Trypsin at 100 μM % [1]: 12.2%
Chymase at 100 μM % (Chymase, from human skin): 4.6%
IC50 [2]: 0.019 µM
Thrombin at 100 μM % [3]: 17.1%
Tryptase At 100 μM % [4]: 0%
Urokinase at 100 μM % [5]: 14.4%
IC50 [6]: 43.9 µM
Chymotrypsin at 100 μM % [7]: 77.1%
FXa at 100 μM % [8]: 12.6%

Compound: CC[C@H](C)[C@@H]1NC(=O)[C@@H]2CCCN2C(=O)[C@@H]2CCCN2C(=O)[C@H](CC(=O)O)NC(=O)[C@H](CO)NC(=O)[C@H](CCCCN)NC(=O)[C@H]([C@@H](C)O)NC(=O)[C@@H]2CSSC[C@H](NC1=O)C(=O)N[C@@H](CC(=O)O)C(=O)N1CCC[C@@H]1C(=O)N1CCC[C@H]1C(=O)N[C@@H](Cc1ccccc1)C(=O)N2 [Ex. 2] (HELM PEPTIDE1{F.C.T.K.S.D.P.P.I.C.D.[dP].P}$PEPTIDE1,PEPTIDE1,2:R3-10:R3|PEPTIDE1,PEPTIDE1,1:R1-13:R2$$$V2.0)
Trypsin at 100 μM % [1]: 92%
Chymase at 100 μM % (Chymase, from human skin): 0%
IC50 [2]: > 100 µM
Thrombin at 100 μM % [3]: 9.2%
Tryptase at 100 μM % [4]: 39.6%
Urokinase at 100 μM % [5]: 0.9%
IC50 [6]: 0.084 µM
Chymotrypsin at 100 μM % [7]: 2.9%
FXa at 100 μM % [8]: 5.3%

Compound: CC[C@H](C)[C@@H]1NC(=O)[C@@H]2CCCN2C(=O)[C@@H]2CCCN2C(=O)[C@H](CC(=O)O)NC(=O)[C@H](CO)NC(=O)[C@H](CCCCN)NC(=O)[C@H]([C@@H](C)O)NC(=O)[C@@H]2CSSC[C@H](NC1=O)C(=O)N[C@@H](Cc1ccc(O)cc1)C(=O)N1CCC[C@@H]1C(=O)N1CCC[C@H]1C(=O)N[C@@H](Cc1ccc(O)cc1)C(=O)N2 [Ex. 26] (HELM PEPTIDE1{Y.C.T.K.S.D.P.P.I.C.Y.[dP].P}$PEPTIDE1,PEPTIDE1,2:R3-10:R3|PEPTIDE1,PEPTIDE1,1:R1-13:R2$$$V2.0)
Trypsin at 100 μM % [1]: 84%
Chymase at 100 μM % (Chymase, from human skin): 0%
IC50 [2]: > 100 µM
Thrombin at 100 μM % [3]: 3%
Tryptase at 100 μM % [4]: 66.4%
Urokinase at 100 μM % [5]: 3.1%
IC50 [6]: 0.049 µM
Chymotrypsin at 100 μM % [7]: 2.2%
FXa at 100 μM % [8]: 6%

Compound: CC[C@H](C)[C@@H]1NC(=O)[C@@H]2CCCN2C(=O)[C@@H]2CCCN2C(=O)[C@H](CC(=O)O)NC(=O)[C@H](CO)NC(=O)[C@H](CCCCN)NC(=O)[C@H]([C@@H](C)O)NC(=O)[C@@H]2CSSC[C@H](NC1=O)C(=O)N[C@@H]([C@@H](C)O)C(=O)N1CCC[C@@H]1C(=O)N1CCC[C@H]1C(=O)N[C@@H](CCc1ccccc1)C(=O)N2 [Ex. 28] (HELM PEPTIDE1{[O=C([C@H](CCc1ccccc1)N[*:1])[*:2]].C.T.K.S.D.P.P.I.C.T.[dP].P}$PEPTIDE1,PEPTIDE1,2:R3-10:R3|PEPTIDE1,PEPTIDE1,1:R1-13:R2$$$V2.0)
Trypsin at 100 μM % [1]: 95%
Chymase at 100 μM % (Chymase, from human skin): 0%
IC50 [2]: > 100 µM
Thrombin at 100 μM % [3]: 12%
Tryptase at 100 μM % [4]: 0%
Urokinase at 100 μM % [5]: 1%
IC50 [6]: 0.039 µM
Chymotrypsin at 100 μM % [7]: 32%
FXa at 100 μM % [8]: 6%

Compound: CC[C@H](C)[C@@H]1NC(=O)[C@@H]2CCCN2C(=O)[C@@H]2CCCN2C(=O)[C@H](CC(=O)O)NC(=O)[C@H](CO)NC(=O)[C@H](CCCCN)NC(=O)[C@H]([C@@H](C)O)NC(=O)[C@@H]2CSSC[C@H](NC1=O)C(=O)N[C@@H](CC(N)=O)C(=O)N1CCC[C@@H]1C(=O)N1CCC[C@H]1C(=O)N[C@@H](Cc1ccc(N)cc1)C(=O)N2 [Ex. 31] (HELM PEPTIDE1{[Nc1ccc(C[C@H](N[*:1])C(=O)[*:2])cc1].C.T.K.S.D.P.P.I.C.N.[dP].P}$PEPTIDE1,PEPTIDE1,2:R3-10:R3|PEPTIDE1,PEPTIDE1,1:R1-13:R2$$$V2.0)
Trypsin at 100 μM % [1]: 98%
Chymase at 100 μM % (Chymase, from human skin): 12%
IC50 [2]: > 100 µM
Thrombin at 100 μM % [3]: 10%
Tryptase at 100 μM % [4]: 76%
Urokinase at 100 μM % [5]: 15%
IC50 [6]: 0.034 µM
Chymotrypsin at 100 μM % [7]: 15%
FXa at 100 μM % [8]: 8%

Compound: CC[C@H](C)[C@@H]1NC(=O)[C@@H]2CCCN2C(=O)[C@@H]2CCCN2C(=O)[C@H](CC(=O)O)NC(=O)[C@H](CO)NC(=O)[C@H](CCCCN)NC(=O)[C@H]([C@@H](C)O)NC(=O)[C@@H]2CSSC[C@H](NC1=O)C(=O)N[C@@H](CO)C(=O)N[C@H](C)C(=O)N[C@@H](CC(=O)O)C(=O)N[C@@H](Cc1ccccc1)C(=O)N2 [Ex. 68] (HELM PEPTIDE1{F.C.T.K.S.D.P.P.I.C.S.[dA].D}$PEPTIDE1,PEPTIDE1,2:R3-10:R3|PEPTIDE1,PEPTIDE1,1:R1-13:R2$$$V2.0)
Trypsin at 100 μM % [1]: 84.2%
Chymase at 100 μM % (Chymase, from human skin): 0%
IC50 [2]: > 100 µM
Thrombin at 100 μM % [3]: 5.4%
Tryptase at 100 μM % [4]: 21.3%
Urokinase at 100 μM % [5]: 4.6%
IC50 [6]: 0.059 µM
Chymotrypsin at 100 μM % [7]: 4.3%
FXa at 100 μM % [8]: 8.6%

Trypsin at 100 μM % [1]: 0%
Chymase at 100 μM % (Chymase, from human skin): 0%
IC50 [2]: 0.034 µM
Thrombin at 100 μM % [3]: 7.7%
Tryptase at 100 μM % [4]: 0%
Urokinase at 100 μM % [5]: 0%
Cathepsin G at 100 μM % ([6]; at 100 μM (stated in cell instead of IC50)): 53.5 at 100%
Chymotrypsin at 100 μM % [7]: 3.1 at 100 μM %
FXa at 100 μM % [8]: 6.2%
Compound: CCCC[C@@H]1NC(=O)[C@@H]2CCCN2C(=O)[C@H]2CCCN2C(=O)[C@H](Cc2ccc(O)cc2)NC(=O)[C@H](CCCCN)NC(=O)[C@H](CCC(N)=O)NC(=O)[C@@H]2CCCN2C(=O)[C@@H]2CCCN2C(=O)[C@H]([C@@H](C)CC)NC(=O)[C@H](CO)NC(=O)[C@H](C)NC(=O)[C@H]([C@@H](C)O)NC(=O)[C@H](CCC(=O)O)NC1=O [Ex. 104] (HELM PEPTIDE1{[Nle].E.T.A.S.I.P.P.Q.K.Y.[dP].P}$PEPTIDE1,PEPTIDE1,1:R1-13:R2$$$V2.0)

Compound: CCCCCCCC[C@@H]1NC(=O)[C@@H]2CCCN2C(=O)[C@H]2CCCN2C(=O)[C@H](CCC(N)=O)NC(=O)[C@@H]2CSSC[C@H](NC1=O)C(=O)N[C@@H]([C@@H](C)O)C(=O)N[C@@H](C)C(=O)N[C@@H](CO)C(=O)N[C@@H](CC1CCCCC1)C(=O)N1CCC[C@H]1C(=O)N1CC(NC(=O)c3ccccc3)C[C@H]1C(=O)N[C@@H](CCC(N)=O)C(=O)N2 (stereo partly shown) [Ex. 160] (HELM PEPTIDE1{[CCCCCCCC[C@H](N[*:1])C(=O)[*:2]].C.T.A.S.[Cha].P.[O=C(NC1C[C@@H](C(=O)[*:2])N([*:1])C1)c1ccccc1].Q.C.Q.[dP].P}$PEPTIDE1,PEPTIDE1,2:R3-10:R3|PEPTIDE1,PEPTIDE1,1:R1-13:R2$$$V2.0)
Trypsin at 100 μM % [1]: 3%
Chymase at 100 μM % (Chymase, from human skin): 2%
Thrombin at 100 μM % [3]: 23%
Tryptase At 100 μM % [4]: 30%
Urokinase at 100 μM % [5]: 14%
Cathepsin G at 100 μM % ([6]; at 100 μM): 55 at 100%
Chymotrypsin at 100 μM % [7]: 94%
FXa at 100 μM % [8]: 1%

Compound: CCCC[C@@H]1NC(=O)[C@H](CCC(N)=O)NC(=O)[C@@H](CCC(N)=O)NC(=O)[C@H](CCC(N)=O)NC(=O)[C@@H]2CSSC[C@H](NC1=O)C(=O)N[C@@H]([C@@H](C)O)C(=O)N[C@@H](C)C(=O)N[C@@H](CO)C(=O)N[C@@H](CC1CCCCC1)C(=O)N1CCC[C@H]1C(=O)N1CC(NC(=O)c3ccccc3)C[C@H]1C(=O)N[C@@H](CCC(N)=O)C(=O)N2 (stereo partly shown) [compound 176] (HELM PEPTIDE1{[Nle].C.T.A.S.[Cha].P.[O=C(NC1C[C@@H](C(=O)[*:2])N([*:1])C1)c1ccccc1].Q.C.Q.[dQ].Q}$PEPTIDE1,PEPTIDE1,2:R3-10:R3|PEPTIDE1,PEPTIDE1,1:R1-13:R2$$$V2.0)
Trypsin at 100 μM % [1]: 7%
Chymase at 100 μM % (Chymase, from human skin): 2%
Thrombin at 100 μM % [3]: 15%
Tryptase At 100 μM % [4]: 17%
Urokinase at 100 μM % [5]: 8%
Cathepsin G at 100 μM % ([6]; at 100 μM): 69 at 100%
Chymotrypsin at 100 μM % [7]: 55%
FXa at 100 μM % [8]: 1%
